Assay results from the supplement of paper PMC10307832.

Experiments:
Experiment in all cases: relative viability (nuclei count vs DMSO), 5 days (fraction); higher = more cells survive
Carfilzomib + Bortezomib = compound: CC(C)C[C@H](NC(=O)[C@H](CCc1ccccc1)NC(=O)CN1CCOCC1)C(=O)N[C@@H](Cc1ccccc1)C(=O)N[C@@H](CC(C)C)C(=O)[C@@]1(C)CO1 [Carfilzomib] + CC(C)C[C@H](NC(=O)[C@H](Cc1ccccc1)NC(=O)c1cnccn1)B(O)O [Bortezomib] (partner 0.002 µM)
How it was run: (§1)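 Relative viability equals treated-well nuclei counts divided by vehicle-well nuclei counts. Counts came from 4× images of lung cancer cell lines grown in 1536-well plates for 5 days after pin-tool dosing on the day after seeding. Dosing used one drug alone or a fixed anchor-drug dose plus five library-drug doses (not always all listed) in √10 steps, and values are medians of duplicate plates.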

Crizotinib + Pemetrexed = compound: C[C@@H](Oc1cc(-c2cnn(C3CCNCC3)c2)cnc1N)c1c(Cl)ccc(F)c1Cl [Crizotinib] + Nc1nc2[nH]cc(CCc3ccc(C(=O)N[C@@H](CCC(=O)O)C(=O)O)cc3)c2c(=O)[nH]1 [Pemetrexed] (partner 0.2 µM)
How it was run: as §1

Olaparib + Foretinib = compound: O=C(c1cc(Cc2n[nH]c(=O)c3ccccc23)ccc1F)N1CCN(C(=O)C2CC2)CC1 [Olaparib] + COc1cc2c(Oc3ccc(NC(=O)C4(C(=O)Nc5ccc(F)cc5)CC4)cc3F)ccnc2cc1OCCCN1CCOCC1 [Foretinib] (partner 0.25 µM)
How it was run: as §1

Olaparib + Decitabine = compound: O=C(c1cc(Cc2n[nH]c(=O)c3ccccc23)ccc1F)N1CCN(C(=O)C2CC2)CC1 [Olaparib] + Nc1ncn([C@H]2C[C@H](O)[C@@H](CO)O2)c(=O)n1 [Decitabine] (partner 2 µM)
How it was run: as §1

LU99A
relative viability (Carfilzomib + Bortezomib; first compound 0.001 µM): 1.09 | relative viability (Carfilzomib + Bortezomib; first compound 0.003162 µM): 1.31 | relative viability (Carfilzomib + Bortezomib; first compound 0.01 µM): 1.05 | relative viability (Carfilzomib + Bortezomib; first compound 0.03162 µM): 0.459 | relative viability (Carfilzomib + Bortezomib; first compound 0.1 µM): 0.216 | relative viability (Crizotinib + Pemetrexed; first compound 0.01 µM): 0.165 | relative viability (Crizotinib + Pemetrexed; first compound 0.03162 µM): 0.167 | relative viability (Crizotinib + Pemetrexed; first compound 0.1 µM): 0.173 | relative viability (Crizotinib + Pemetrexed; first compound 0.3162 µM): 0.142 | relative viability (Crizotinib + Pemetrexed; first compound 1 µM): 0.173 | relative viability (Olaparib + Foretinib; first compound 0.08 µM): 0.826 | relative viability (Olaparib + Foretinib; first compound 0.253 µM): 0.646 | relative viability (Olaparib + Foretinib; first compound 2.53 µM): 0.608 | relative viability (Olaparib + Foretinib; first compound 8 µM): 0.537 | relative viability (Olaparib + Decitabine; first compound 0.08 µM): 0.933 | relative viability (Olaparib + Decitabine; first compound 0.253 µM): 0.753 | relative viability (Olaparib + Decitabine; first compound 2.53 µM): 0.601 | relative viability (Olaparib + Decitabine; first compound 8 µM): 0.566

LXF-289
relative viability (Carfilzomib + Bortezomib; first compound 0.001 µM): 1.03 | relative viability (Carfilzomib + Bortezomib; first compound 0.003162 µM): 0.957 | relative viability (Carfilzomib + Bortezomib; first compound 0.01 µM): 0.653 | relative viability (Carfilzomib + Bortezomib; first compound 0.03162 µM): 0.0711 | relative viability (Carfilzomib + Bortezomib; first compound 0.1 µM): 0.0774 | relative viability (Crizotinib + Pemetrexed; first compound 0.01 µM): 0.807 | relative viability (Crizotinib + Pemetrexed; first compound 0.03162 µM): 0.939 | relative viability (Crizotinib + Pemetrexed; first compound 0.1 µM): 0.788 | relative viability (Crizotinib + Pemetrexed; first compound 0.3162 µM): 0.736 | relative viability (Olaparib + Foretinib; first compound 0.08 µM): 1.06 | relative viability (Olaparib + Foretinib; first compound 0.253 µM): 0.91 | relative viability (Olaparib + Foretinib; first compound 2.53 µM): 1.07 | relative viability (Olaparib + Foretinib; first compound 8 µM): 0.983 | relative viability (Olaparib + Decitabine; first compound 0.08 µM): 0.336 | relative viability (Olaparib + Decitabine; first compound 0.253 µM): 0.302 | relative viability (Olaparib + Decitabine; first compound 2.53 µM): 0.272 | relative viability (Olaparib + Decitabine; first compound 8 µM): 0.232

NCI-H23
relative viability (Carfilzomib + Bortezomib; first compound 0.001 µM): 1.01 | relative viability (Carfilzomib + Bortezomib; first compound 0.003162 µM): 0.92 | relative viability (Carfilzomib + Bortezomib; first compound 0.01 µM): 0.445 | relative viability (Carfilzomib + Bortezomib; first compound 0.03162 µM): 0.165 | relative viability (Carfilzomib + Bortezomib; first compound 0.1 µM): 0.125 | relative viability (Crizotinib + Pemetrexed; first compound 0.01 µM): 0.489 | relative viability (Crizotinib + Pemetrexed; first compound 0.03162 µM): 0.591 | relative viability (Crizotinib + Pemetrexed; first compound 0.1 µM): 0.567 | relative viability (Crizotinib + Pemetrexed; first compound 1 µM): 0.812 | relative viability (Olaparib + Foretinib; first compound 0.08 µM): 1.19 | relative viability (Olaparib + Foretinib; first compound 0.253 µM): 0.904 | relative viability (Olaparib + Foretinib; first compound 2.53 µM): 0.971 | relative viability (Olaparib + Foretinib; first compound 8 µM): 0.706 | relative viability (Olaparib + Decitabine; first compound 0.08 µM): 0.336 | relative viability (Olaparib + Decitabine; first compound 0.253 µM): 0.313 | relative viability (Olaparib + Decitabine; first compound 2.53 µM): 0.259 | relative viability (Olaparib + Decitabine; first compound 8 µM): 0.277

NCI-H322M
relative viability (Carfilzomib + Bortezomib; first compound 0.001 µM): 1.27 | relative viability (Carfilzomib + Bortezomib; first compound 0.003162 µM): 1.31 | relative viability (Carfilzomib + Bortezomib; first compound 0.01 µM): 1.35 | relative viability (Carfilzomib + Bortezomib; first compound 0.03162 µM): 1.21 | relative viability (Carfilzomib + Bortezomib; first compound 0.1 µM): 0.66 | relative viability (Crizotinib + Pemetrexed; first compound 0.03162 µM): 0.656 | relative viability (Crizotinib + Pemetrexed; first compound 0.1 µM): 0.593 | relative viability (Crizotinib + Pemetrexed; first compound 0.3162 µM): 0.649 | relative viability (Crizotinib + Pemetrexed; first compound 1 µM): 0.656 | relative viability (Olaparib + Foretinib; first compound 0.08 µM): 1.04 | relative viability (Olaparib + Foretinib; first compound 0.253 µM): 0.964 | relative viability (Olaparib + Foretinib; first compound 2.53 µM): 0.979 | relative viability (Olaparib + Foretinib; first compound 8 µM): 0.718 | relative viability (Olaparib + Decitabine; first compound 0.08 µM): 0.685 | relative viability (Olaparib + Decitabine; first compound 0.253 µM): 0.592 | relative viability (Olaparib + Decitabine; first compound 2.53 µM): 0.708 | relative viability (Olaparib + Decitabine; first compound 8 µM): 0.596

NCI-H441
relative viability (Carfilzomib + Bortezomib; first compound 0.001 µM): 0.25 | relative viability (Carfilzomib + Bortezomib; first compound 0.003162 µM): 0.383 | relative viability (Carfilzomib + Bortezomib; first compound 0.01 µM): 0.14 | relative viability (Carfilzomib + Bortezomib; first compound 0.03162 µM): 0.153 | relative viability (Carfilzomib + Bortezomib; first compound 0.1 µM): 0.111 | relative viability (Crizotinib + Pemetrexed; first compound 0.01 µM): 0.25 | relative viability (Crizotinib + Pemetrexed; first compound 0.03162 µM): 0.265 | relative viability (Crizotinib + Pemetrexed; first compound 0.1 µM): 0.292 | relative viability (Crizotinib + Pemetrexed; first compound 0.3162 µM): 0.246 | relative viability (Crizotinib + Pemetrexed; first compound 1 µM): 0.237 | relative viability (Olaparib + Foretinib; first compound 0.08 µM): 1.13 | relative viability (Olaparib + Foretinib; first compound 0.253 µM): 0.857 | relative viability (Olaparib + Foretinib; first compound 2.53 µM): 0.967 | relative viability (Olaparib + Foretinib; first compound 8 µM): 0.83 | relative viability (Olaparib + Decitabine; first compound 0.08 µM): 0.257 | relative viability (Olaparib + Decitabine; first compound 0.253 µM): 0.197 | relative viability (Olaparib + Decitabine; first compound 2.53 µM): 0.243 | relative viability (Olaparib + Decitabine; first compound 8 µM): 0.188

NCI-H460
relative viability (Carfilzomib + Bortezomib; first compound 0.001 µM): 1.06 | relative viability (Carfilzomib + Bortezomib; first compound 0.003162 µM): 1.12 | relative viability (Carfilzomib + Bortezomib; first compound 0.01 µM): 1 | relative viability (Carfilzomib + Bortezomib; first compound 0.03162 µM): 0.0827 | relative viability (Carfilzomib + Bortezomib; first compound 0.1 µM): 0.0107 | relative viability (Crizotinib + Pemetrexed; first compound 0.01 µM): 0.0615 | relative viability (Crizotinib + Pemetrexed; first compound 0.03162 µM): 0.0628 | relative viability (Crizotinib + Pemetrexed; first compound 0.1 µM): 0.0607 | relative viability (Crizotinib + Pemetrexed; first compound 0.3162 µM): 0.0596 | relative viability (Crizotinib + Pemetrexed; first compound 1 µM): 0.0647 | relative viability (Olaparib + Foretinib; first compound 0.08 µM): 0.925 | relative viability (Olaparib + Foretinib; first compound 0.253 µM): 0.889 | relative viability (Olaparib + Foretinib; first compound 2.53 µM): 0.914 | relative viability (Olaparib + Foretinib; first compound 8 µM): 0.437 | relative viability (Olaparib + Decitabine; first compound 0.08 µM): 0.114 | relative viability (Olaparib + Decitabine; first compound 0.253 µM): 0.128 | relative viability (Olaparib + Decitabine; first compound 2.53 µM): 0.0907 | relative viability (Olaparib + Decitabine; first compound 8 µM): 0.062

NCI-H520
relative viability (Carfilzomib + Bortezomib; first compound 0.001 µM): 0.45 | relative viability (Carfilzomib + Bortezomib; first compound 0.003162 µM): 0.179 | relative viability (Carfilzomib + Bortezomib; first compound 0.01 µM): 0.142 | relative viability (Carfilzomib + Bortezomib; first compound 0.03162 µM): 0.129 | relative viability (Carfilzomib + Bortezomib; first compound 0.1 µM): 0.132 | relative viability (Crizotinib + Pemetrexed; first compound 0.01 µM): 0.564 | relative viability (Crizotinib + Pemetrexed; first compound 0.03162 µM): 0.626 | relative viability (Crizotinib + Pemetrexed; first compound 0.1 µM): 0.644 | relative viability (Crizotinib + Pemetrexed; first compound 0.3162 µM): 0.789 | relative viability (Crizotinib + Pemetrexed; first compound 1 µM): 0.756 | relative viability (Olaparib + Foretinib; first compound 0.08 µM): 0.848 | relative viability (Olaparib + Foretinib; first compound 0.253 µM): 0.761 | relative viability (Olaparib + Foretinib; first compound 2.53 µM): 0.624 | relative viability (Olaparib + Foretinib; first compound 8 µM): 0.359 | relative viability (Olaparib + Decitabine; first compound 0.08 µM): 0.467 | relative viability (Olaparib + Decitabine; first compound 0.253 µM): 0.318 | relative viability (Olaparib + Decitabine; first compound 2.53 µM): 0.365 | relative viability (Olaparib + Decitabine; first compound 8 µM): 0.261

NCI-H596
relative viability (Carfilzomib + Bortezomib; first compound 0.001 µM): 0.885 | relative viability (Carfilzomib + Bortezomib; first compound 0.003162 µM): 0.987 | relative viability (Carfilzomib + Bortezomib; first compound 0.01 µM): 0.839 | relative viability (Carfilzomib + Bortezomib; first compound 0.03162 µM): 0.483 | relative viability (Carfilzomib + Bortezomib; first compound 0.1 µM): 0.2 | relative viability (Crizotinib + Pemetrexed; first compound 0.01 µM): 0.462 | relative viability (Crizotinib + Pemetrexed; first compound 0.03162 µM): 0.48 | relative viability (Crizotinib + Pemetrexed; first compound 0.1 µM): 0.509 | relative viability (Crizotinib + Pemetrexed; first compound 0.3162 µM): 0.458 | relative viability (Crizotinib + Pemetrexed; first compound 1 µM): 0.509 | relative viability (Olaparib + Foretinib; first compound 0.08 µM): 0.927 | relative viability (Olaparib + Foretinib; first compound 0.253 µM): 0.82 | relative viability (Olaparib + Foretinib; first compound 2.53 µM): 0.828 | relative viability (Olaparib + Foretinib; first compound 8 µM): 0.534 | relative viability (Olaparib + Decitabine; first compound 0.08 µM): 0.915 | relative viability (Olaparib + Decitabine; first compound 0.253 µM): 0.9 | relative viability (Olaparib + Decitabine; first compound 2.53 µM): 0.732 | relative viability (Olaparib + Decitabine; first compound 8 µM): 0.632

NCI-H647
relative viability (Carfilzomib + Bortezomib; first compound 0.001 µM): 0.674 | relative viability (Carfilzomib + Bortezomib; first compound 0.003162 µM): 0.72 | relative viability (Carfilzomib + Bortezomib; first compound 0.01 µM): 0.154 | relative viability (Carfilzomib + Bortezomib; first compound 0.03162 µM): 0.0243 | relative viability (Carfilzomib + Bortezomib; first compound 0.1 µM): 0.0299 | relative viability (Crizotinib + Pemetrexed; first compound 0.01 µM): 0.162 | relative viability (Crizotinib + Pemetrexed; first compound 0.03162 µM): 0.188 | relative viability (Crizotinib + Pemetrexed; first compound 0.1 µM): 0.146 | relative viability (Crizotinib + Pemetrexed; first compound 0.3162 µM): 0.177 | relative viability (Crizotinib + Pemetrexed; first compound 1 µM): 0.186 | relative viability (Olaparib + Foretinib; first compound 0.08 µM): 1.19 | relative viability (Olaparib + Foretinib; first compound 0.253 µM): 1.04 | relative viability (Olaparib + Foretinib; first compound 2.53 µM): 1.13 | relative viability (Olaparib + Foretinib; first compound 8 µM): 1.07 | relative viability (Olaparib + Decitabine; first compound 0.08 µM): 0.293 | relative viability (Olaparib + Decitabine; first compound 0.253 µM): 0.253 | relative viability (Olaparib + Decitabine; first compound 2.53 µM): 0.227 | relative viability (Olaparib + Decitabine; first compound 8 µM): 0.152
